According to patent US20230265068A1, “TRANSIENT RECEPTOR POTENTIAL CANONICAL 3 INHIBITORS AND METHODS OF USE THEREOF” (University of Tennessee Research Foundation, priority 2020, published 2023):

Columns and labels:
TRPC3 = target: T1, TRPC3 (Homo sapiens, UniProt Q13507); assay: LC-MS detection of compound bound to affinity-purified TRPC3 protein after size-exclusion chromatography; format: binding; parameters: made in house; details: 1 h incubation, free compound removed
T1 sequence (Q13507 1-921): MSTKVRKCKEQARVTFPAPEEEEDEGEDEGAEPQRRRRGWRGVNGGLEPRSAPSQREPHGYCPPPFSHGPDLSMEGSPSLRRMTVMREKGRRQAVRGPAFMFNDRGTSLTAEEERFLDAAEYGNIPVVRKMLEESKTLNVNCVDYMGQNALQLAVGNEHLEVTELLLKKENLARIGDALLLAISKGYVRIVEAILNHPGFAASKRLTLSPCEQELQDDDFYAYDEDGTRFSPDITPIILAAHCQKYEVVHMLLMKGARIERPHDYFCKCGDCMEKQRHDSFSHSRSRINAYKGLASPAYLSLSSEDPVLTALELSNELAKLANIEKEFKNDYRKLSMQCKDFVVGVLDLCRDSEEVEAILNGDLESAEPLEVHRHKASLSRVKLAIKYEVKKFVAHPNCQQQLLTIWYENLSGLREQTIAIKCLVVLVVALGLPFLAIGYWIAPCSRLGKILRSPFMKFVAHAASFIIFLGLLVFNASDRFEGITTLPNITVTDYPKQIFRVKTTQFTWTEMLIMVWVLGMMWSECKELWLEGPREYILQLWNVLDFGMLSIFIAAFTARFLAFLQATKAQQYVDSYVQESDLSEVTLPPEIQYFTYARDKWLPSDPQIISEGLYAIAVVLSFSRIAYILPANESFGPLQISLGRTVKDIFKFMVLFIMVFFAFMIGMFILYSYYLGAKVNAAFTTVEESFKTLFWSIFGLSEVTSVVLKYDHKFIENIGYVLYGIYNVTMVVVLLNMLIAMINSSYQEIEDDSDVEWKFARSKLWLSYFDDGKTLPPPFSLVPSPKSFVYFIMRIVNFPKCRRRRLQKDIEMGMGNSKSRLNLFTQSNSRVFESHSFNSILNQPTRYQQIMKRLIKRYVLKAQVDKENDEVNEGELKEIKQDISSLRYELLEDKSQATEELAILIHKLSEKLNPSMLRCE
Protocol: LC-MS technique was employed to find some evidence of the on-target engagement of compound 22 with TRPC3. Biochemical quantities of affinity-purified TRPC3 protein was successfully generated before and was confirmed by SDS-PAGE.21 After incubation of compound 22 with TRPC3 protein for 1 h, repeated size-exclusion chromatography was used to completely remove free compound 22 from the protein-bound fraction. Methanol was then added to this complex to denature the protein and extract the bound compound.

PTZ-induced seizures = assay: mouse pentylenetetrazole (PTZ) model of SE; format: in vivo, mice; details: 100 mg/kg, i.p., 30 min before PTZ; vs vehicle
Protocol: FIGS. 8A-8B show the inhibition of TRPC3 channels by compound 22 reduces susceptibility of animals to PTZ-induced seizures. Young adult C57BL/6 mice (male, 8-9 weeks) were first treated by compound 22 (100 mg/kg, i.p.), and 30 minutes later by pentylenetetrazole (PTZ, 80±5 mg/kg, s.c.) for the induction seizures. (FIG. 8A) Percentages of mice reaching myoclonic jerk (MJ, Left) and generalized tonic-clonic seizure (GTCS, Right) were compared between vehicle and compound 22-treated mice by Mantel-Cox log-rank test. (FIG. 8B) Latencies to the first MJ (Left) and first GTCS (Right) were compared between vehicle and compound 22 by t-test. Data are shown as mean+SEM (number of mice N=9 for vehicle; 10 for compound 22).
To ensure that the efficacy observed in FIG. 7 is not associated with this particular mouse model of epilepsy, we examined the effects of our current lead compound 22 on pentylenetetrazole (PTZ)-induced seizures in mice. As a GABA receptor antagonist, PTZ is another convulsant chemical commonly used to generate seizures in experimental rodents. Young adult C57BL/6 mice (male, 8-9 weeks) were first treated by 22 (100 mg/kg, i.p.) or vehicle. Thirty minutes later, mice were subcutaneously injected with (PTZ, ˜80 mg/kg) to induced seizures. Animals were placed in a plexiglass chamber, and the latencies to the first myoclonic jerk (MJ) and the first generalized tonic-clonic seizure (GTCS) were recorded during a 30-min period of observation. […] Given that PTZ (FIG. 8) and pilocarpine (FIG. 7) trigger seizures via different mechanisms of actions, it is unlikely the anti-seizure effects of our lead compound 22 are model-specific.

Structure (SMILES): CCNC(=O)c1cnn(-c2ccc(-n3ccc(Cl)c(Cl)c3=O)cc2)c1C(F)(F)F [Compound 22]
- binding to TRPC3 protein (compound detected by LC-MS in extract of purified complex) (TRPC3): direct binding
- latency to first GTCS (PTZ-induced seizures): significantly increased
- latency to first MJ (PTZ-induced seizures): significantly increased
- percentage of mice that reached generalized tonic-clonic seizure (GTCS) (PTZ-induced seizures): substantially reduced
- percentage of mice that reached myoclonic jerk (MJ) (PTZ-induced seizures): substantially reduced
